Measured values published in PubChem BioAssay (NCI).
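Following 48 hours of exposure in 96-well plates, responses at five concentrations were used to interpolate endpoints linearly. GI50 is the concentration that inhibits growth by half. Definition used: TGI = concentration required for complete inhibition of growth.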

Experiments:
Assay in all cases: growth of human tumour cells (NCI), 48 h
HCC-2998 colon = tested on: HCC-2998 colon
HL-60(TB) leukemia = tested on: HL-60(TB) leukemia
IGROV1 ovarian = tested on: IGROV1 ovarian
M14 melanoma = tested on: M14 melanoma
MOLT-4 leukemia = tested on: MOLT-4 leukemia
OVCAR-5 ovarian = tested on: OVCAR-5 ovarian
OVCAR-8 ovarian = tested on: OVCAR-8 ovarian
T-47D breast = tested on: T-47D breast

Structure (SMILES)	TGI (HCC-2998 colon)	TGI (HL-60(TB) leukemia)	TGI (IGROV1 ovarian)	TGI (M14 melanoma)	TGI (MOLT-4 leukemia)	TGI (OVCAR-5 ovarian)	TGI (OVCAR-8 ovarian)	TGI (T-47D breast)	GI50 (HCC-2998 colon)	GI50 (HL-60(TB) leukemia)	GI50 (IGROV1 ovarian)	GI50 (M14 melanoma)	GI50 (MOLT-4 leukemia)	GI50 (OVCAR-5 ovarian)	GI50 (OVCAR-8 ovarian)	GI50 (T-47D breast)
CC(=O)OCC1OC(Nn2c(=O)[nH]c3ccccc3c2=O)C(OC(C)=O)C(OC(C)=O)C1OC(C)=O (centres undefined)	53 µM	> 100 µM	> 100 µM	> 100 µM	> 100 µM	> 100 µM	> 100 µM	> 100 µM	–	–	–	–	–	–	–	–
CC1=C(c2ccccc2)NC(=S)C(C)C(c2ccccc2)=N1 (centres undefined)	> 100 µM	35.1 µM	> 100 µM	–	54.1 µM	> 100 µM	> 100 µM	> 100 µM	–	–	–	–	–	–	–	–
COc1ccc(CCCNC(=O)c2cc(OC)c(OC)cc2CCO)cc1OC	> 100 µM	> 100 µM	> 100 µM	> 100 µM	> 100 µM	> 100 µM	> 100 µM	> 100 µM	–	–	–	–	–	–	–	–
NC(Cc1ccc(N(CCCl)CCCl)cc1)C(=O)NC(CCC(=O)O)C(=O)O (centres undefined)	> 100 µM	> 100 µM	> 100 µM	> 100 µM	> 100 µM	> 100 µM	> 100 µM	> 100 µM	–	–	–	–	–	–	–	–
O=C(Nc1ccc(-n2ccc3c(NC(=O)c4ccccc4)ncnc32)cc1)Nc1ccc(Cl)c(Cl)c1	20.7 µM	30.6 µM	18.2 µM	8.11 µM	12.9 µM	13.2 µM	8.6 µM	11.7 µM	5.34 µM	8.18 µM	7.16 µM	2.42 µM	2.75 µM	5.62 µM	2.38 µM	3.32 µM
S=C1CCSc2c(ccc3ccccc23)N1	–	> 100 µM	> 100 µM	> 100 µM	> 100 µM	> 100 µM	> 100 µM	> 100 µM	–	–	–	–	–	–	–	–
Cc1ccc(S(=O)(=O)Oc2nc3ccccc3nc2OS(=O)(=O)c2ccc(C)cc2)cc1	> 100 µM	> 100 µM	> 100 µM	> 100 µM	> 100 µM	> 100 µM	> 100 µM	–	–	–	–	–	–	–	–	–
COC1CC(COCc2ccccc2)CC(OC)O1 (centres undefined)	> 100 µM	1.84 µM	–	> 100 µM	> 100 µM	> 100 µM	> 100 µM	> 100 µM	–	–	–	–	–	–	–	–
CC(=O)Nc1ccc2c3c(cc(O)c2c1)N(C(=O)CCCCCCC(=O)N1CC(CCl)c2c1cc(O)c1cc(NC(C)=O)ccc21)CC3CCl (centres undefined)	–	–	0.499 µM	0.0177 µM	–	0.243 µM	0.346 µM	< 0.01 µM	–	–	–	–	–	–	–	–
O=C1C(=O)N(c2cccc(C(F)(F)F)c2)C(=S)N1c1ccccc1	> 100 µM	84.5 µM	63.2 µM	–	> 100 µM	80.5 µM	> 100 µM	> 100 µM	–	–	–	–	–	–	–	–
CCC(=O)Nc1ccc(NC(C#N)c2cccc(Oc3ccccc3)c2)cc1 (centres undefined)	–	46.8 µM	> 100 µM	> 100 µM	36 µM	> 100 µM	73.4 µM	> 100 µM	–	–	–	–	–	–	–	–
N#Cc1c(N2CCC(O)C2)c2ccccc2n2c1nc1ccccc12 (centres undefined)	> 100 µM	> 100 µM	> 100 µM	> 100 µM	> 100 µM	> 100 µM	> 100 µM	> 100 µM	–	–	–	–	–	–	–	–
O=C(Nc1ccc2[nH]c(C(=O)N3CC(CCl)c4c3cc([N+](=O)[O-])c3ccccc43)cc2c1)Nc1ccc2[nH]c(C(=O)N3CC(CCl)c4c3cc([N+](=O)[O-])c3ccccc43)cc2c1 (centres undefined)	–	–	–	> 100 µM	–	> 100 µM	–	> 100 µM	–	–	–	–	–	–	–	–
CCOc1ccc(N/C(=C(/C(Cl)=C(/Cl)N2CCCCC2)[N+](=O)[O-])n2nnc3ccccc32)cc1	59.2 µM	–	–	38.2 µM	> 100 µM	32.5 µM	–	49.6 µM	–	–	–	–	–	–	–	–
C/C=C(\C)C(O)C(C)C(O)C/C=C(C)/C=C(\C)C/C(C)=C/C/C=C(\C)C(O)C(C)c1ccc(CCC)c(=O)o1 (centres undefined)	26.4 µM	> 100 µM	32.8 µM	28.4 µM	> 100 µM	37.9 µM	48.7 µM	65.4 µM	–	–	–	–	–	–	–	–
C=C(CCC/C(C)=C/C=C/[C@@H](C)CCCc1ccoc1)C[C@@H]1OC(=O)[C@H](C)[C@@H]1O	24.8 µM	–	21.7 µM	19.9 µM	> 50 µM	> 50 µM	21.3 µM	26.2 µM	–	–	–	–	–	–	–	–
Nc1nc2ncc(CNc3ccc(C(=O)NC(CCC(=O)O)C(=O)O)cc3)nc2c(=O)[nH]1 (centres undefined)	> 100 µM	–	> 100 µM	> 100 µM	> 100 µM	> 100 µM	> 100 µM	–	–	–	–	–	–	–	–	–
COC(=O)c1cc(C(=CCC[C@H]2CC[C@@]3(C)C(CCC4C3CC[C@@]3(C)C4CC[C@@H]3C(C)CCCC(C)C)C2)c2cc(Cl)c(O)c(C(=O)OC)c2)cc(Cl)c1O (some centres undefined)	> 10 µM	> 10 µM	> 10 µM	> 10 µM	> 10 µM	> 10 µM	> 10 µM	> 10 µM	–	–	–	–	–	–	–	–
CC(C)NC(=O)N(Nc1ccccc1)C(C)(C)C	> 100 µM	> 100 µM	> 100 µM	> 100 µM	> 100 µM	> 100 µM	> 100 µM	–	–	–	–	–	–	–	–	–
C=CCN(C(=O)OC(C)(C)C)[C@H](C)C(=O)N[C@@H](C)C(=O)OC	–	> 100 µM	> 100 µM	> 100 µM	> 100 µM	> 100 µM	> 100 µM	> 100 µM	–	–	–	–	–	–	–	–
CC(=O)Nc1c(C)cc2c(nc3n2CCC3OC(C)=O)c1[N+](=O)[O-] (centres undefined)	–	> 100 µM	> 100 µM	> 100 µM	> 100 µM	> 100 µM	> 100 µM	> 100 µM	–	–	–	–	–	–	–	–
C/C(CC(O)(/C=N/O)c1ccccc1)=N/O (centres undefined)	> 100 µM	–	> 100 µM	> 100 µM	> 100 µM	> 100 µM	> 100 µM	> 100 µM	–	–	–	–	–	–	–	–
CCOC(=O)C1=CCOc2cc(N(C)C)ccc21	> 100 µM	> 100 µM	> 100 µM	> 100 µM	–	–	> 100 µM	–	–	–	–	–	–	–	–	–
O=c1[nH]nc(-c2ccccc2)n1/N=C/c1cccs1	> 100 µM	–	–	> 100 µM	> 100 µM	> 100 µM	> 100 µM	> 100 µM	–	–	–	–	–	–	–	–
O=C(CN1CCOCC1)c1ccc2c(c1)oc(=O)n2CCN1CCOCC1	–	> 100 µM	> 100 µM	> 100 µM	> 100 µM	> 100 µM	> 100 µM	–	–	–	–	–	–	–	–	–
[N-]=[N+]=NC(c1cn(C2CC(O)C(CO)O2)c(=O)[nH]c1=O)C(Cl)I (centres undefined)	> 100 µM	–	> 100 µM	> 100 µM	> 100 µM	> 100 µM	> 100 µM	> 100 µM	–	–	–	–	–	–	–	–
